Laboratory results: paper PMC8296573, “Synthesis and Biological Evaluation of Fingolimod Derivatives as Antibacterial Agents” (ACS Omega, 2021)
Converted amounts (≈) assume the structure as drawn. Read-outs that look alike come from different tables or passages of the source.

Assays:
S. aureus ATCC 25923 [1] = assay: Antibacterial activity, pre-exposure (planktonic cells and biofilm formation); assay type: cell-based, Staphylococcus aureus; conditions: for MIC / inhibition at 5 µM / inhibition at 10 µM / inhibition at 15 µM / inhibition at 25 µM: Staphylococcus aureus, ATCC25923; for inhibition at 5 µM / inhibition at 10 µM / inhibition at 15 µM / inhibition at 25 µM / Average inhibition %, biofilms viability / Average inhibition %, planktonic cells viability: pre-exposure, ± SD
How it was run: (§1)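 Growth prevention was tested by adding compounds together with the inoculum. Plates were incubated 18 h at 37 °C. Viability was read by resazurin fluorescence and biomass by crystal violet absorbance at 595 nm.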

P. aeruginosa ATCC 9027 = assay: Antibacterial activity, pre-exposure; assay type: cell-based, Pseudomonas aeruginosa; conditions: for Average inhibition %, biofilms viability / Average inhibition %, planktonic cells viability / inhibition at 50 µM / inhibition at 100 µM / inhibition at 150 µM / inhibition at 200 µM: P. aeruginosa ATCC 9027, pre-exposure, ± SD; for inhibition at 50 µM / inhibition at 100 µM / inhibition at 150 µM / inhibition at 200 µM: Pseudomonas aeruginosa, ATCC9027
How it was run: as §1

S. aureus ATCC 25923 [2] = assay: Antibacterial activity, post-exposure on preformed 18-h-old biofilms; assay type: cell-based, Staphylococcus aureus; conditions: ± SD; for inhibition at 25 µM / inhibition at 50 µM / inhibition at 100 µM / inhibition at 200 µM: Staphylococcus aureus; for inhibition at 25 µM: ATCC25923, 25 µM; for inhibition at 50 µM: ATCC25923, 50 µM; for inhibition at 100 µM: ATCC25923, 100 µM; for inhibition at 200 µM: ATCC25923, 200 µM
How it was run: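 Biofilms grown 18 h without compound, medium then replaced and compound added for a further 24 h. Planktonic OD and resazurin (20 μM final) fluorescence (ex 560/em 590 nm) read; washed biofilms stained with 20 μM resazurin 30 min at 37 °C, then ethanol-fixed and crystal violet-stained, absorbance 595 nm.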

A. baumannii NCTC 13423 = assay: Antibacterial activity, pre-exposure; assay type: cell-based, Acinetobacter baumannii; conditions: for Average inhibition %, biofilms viability / Average inhibition %, planktonic cells viability / inhibition at 10 µM / inhibition at 15 µM / inhibition at 25 µM / inhibition at 50 µM: A. baumannii NCTC 13423, pre-exposure, ± SD; for inhibition at 10 µM / inhibition at 15 µM / inhibition at 25 µM / inhibition at 50 µM: Acinetobacter baumannii, NCTC13423
How it was run: as §1

[3] = 10 µM, read-out: Average inhibition %, biofilms biomass
[4] = 10 µM, read-out: Average inhibition %, planktonic cells turbidity
[5] = 15 µM, read-out: Average inhibition %, biofilms biomass
[6] = 15 µM, read-out: Average inhibition %, planktonic cells turbidity
[7] = 25 µM, read-out: Average inhibition %, biofilms biomass
[8] = 25 µM, read-out: Average inhibition %, planktonic cells turbidity
[9] = 50 µM, read-out: Average inhibition %, biofilms biomass
[10] = 50 µM, read-out: Average inhibition %, planktonic cells turbidity
[11] = read-out: Average inhibition %, biofilms biomass
[12] = read-out: Average inhibition %, planktonic cells turbidity

For `CCCCCCCCc1ccc2cc(CC(N)(CO)CO)ccc2c1` [Compound 79, 2-Amino-2-[(6-octylnaphthalen-2-yl)methyl]propane-1,3-diol], the MIC (S. aureus ATCC 25923 [1]; lowest concentration with no visible growth (>90% inhibition of turbidity and viability of planktonic cells), 18 h, read-out: MIC S. aureus ATCC 25923) was 10 µM (≈ 3.44 µg/mL), the inhibition at 5 µM (S. aureus ATCC 25923 [1]; 5 µM, read-out: Average inhibition %, biofilms biomass) was 37.5 ± 32.5% and the inhibition at 5 µM (S. aureus ATCC 25923 [1]; 5 µM, read-out: Average inhibition %, planktonic cells turbidity) was 15.2 ± 17.2%. The inhibition at 10 µM (S. aureus ATCC 25923 [1]; [3]) was 91.3 ± 5.8%, the inhibition at 10 µM (S. aureus ATCC 25923 [1]; [4]) was 98.7 ± 0.9% and the inhibition at 15 µM (S. aureus ATCC 25923 [1]; [5]) was 92.1 ± 4.9%. For the same molecule, the inhibition at 15 µM (S. aureus ATCC 25923 [1]; [6]) was 98.7 ± 1%, the inhibition at 25 µM (S. aureus ATCC 25923 [1]; [7]) was 92.5 ± 4.2% and the inhibition at 25 µM (S. aureus ATCC 25923 [1]; [8]) was 98.5 ± 1%. The MIC (S. aureus ATCC 25923 [1]; read-out: MIC (S. aureus)) was 10 µM (≈ 3.44 µg/mL), the “Average inhibition %, biofilms viability” value (S. aureus ATCC 25923 [1]; 5 µM) was 28 ± 2.7% and the “Average inhibition %, planktonic cells viability” value (S. aureus ATCC 25923 [1]; 5 µM) was 26.3 ± 24.3%. The “Average inhibition %, biofilms viability” value (S. aureus ATCC 25923 [1]; 10 µM) was 98.1 ± 0.5%, the “Average inhibition %, planktonic cells viability” value (S. aureus ATCC 25923 [1]; 10 µM) was 99.8 ± 0% and the “Average inhibition %, biofilms viability” value (S. aureus ATCC 25923 [1]; 15 µM) was 99.3 ± 0.2%. The “Average inhibition %, planktonic cells viability” value (S. aureus ATCC 25923 [1]; 15 µM) was 99.8 ± 0.1%, the “Average inhibition %, biofilms viability” value (S. aureus ATCC 25923 [1]; 25 µM) was 99.2 ± 0.3% and the “Average inhibition %, planktonic cells viability” value (S. aureus ATCC 25923 [1]; 25 µM) was 99.9 ± 0.2%. For the same molecule, the “Average inhibition %, biofilms viability” value (P. aeruginosa ATCC 9027; 50 µM) was 0 ± 0%, the “Average inhibition %, planktonic cells viability” value (P. aeruginosa ATCC 9027; 50 µM) was 3.9 ± 3.6% and the “Average inhibition %, biofilms viability” value (P. aeruginosa ATCC 9027; 100 µM) was 0 ± 0%. For the same molecule, the “Average inhibition %, planktonic cells viability” value (P. aeruginosa ATCC 9027; 100 µM) was 1.9 ± 2.3%, the “Average inhibition %, biofilms viability” value (P. aeruginosa ATCC 9027; 150 µM) was 0.5 ± 0.9% and the “Average inhibition %, planktonic cells viability” value (P. aeruginosa ATCC 9027; 150 µM) was 4.2 ± 7.4%. For the same molecule, the “Average inhibition %, biofilms viability” value (P. aeruginosa ATCC 9027; 200 µM) was 2.1 ± 3.6%, the “Average inhibition %, planktonic cells viability” value (P. aeruginosa ATCC 9027; 200 µM) was 7.6 ± 13.1% and the inhibition at 50 µM (P. aeruginosa ATCC 9027; [9]) was 1.2 ± 1.5%. The inhibition at 50 µM (P. aeruginosa ATCC 9027; [10]) was 23.6 ± 9%, the inhibition at 100 µM (P. aeruginosa ATCC 9027; 100 µM, read-out: Average inhibition %, biofilms biomass) was 3.6 ± 4.7% and the inhibition at 100 µM (P. aeruginosa ATCC 9027; 100 µM, read-out: Average inhibition %, planktonic cells turbidity) was 23 ± 3.8%. For the same molecule, the inhibition at 150 µM (P. aeruginosa ATCC 9027; 150 µM, read-out: Average inhibition %, biofilms biomass) was 6.1 ± 5.3%, the inhibition at 150 µM (P. aeruginosa ATCC 9027; 150 µM, read-out: Average inhibition %, planktonic cells turbidity) was 28 ± 2.4% and the inhibition at 200 µM (P. aeruginosa ATCC 9027; 200 µM, read-out: Average inhibition %, biofilms biomass) was 0%. For the same molecule, the inhibition at 200 µM (P. aeruginosa ATCC 9027; 200 µM, read-out: Average inhibition %, planktonic cells turbidity) was 25 ± 2.8%, the “MIC P. aeruginosa ATCC 9027” value (P. aeruginosa ATCC 9027; pre-exposure, Inactive = no activity up to 200 μM, > = some inhibition but no MIC reached) was “Inactive” and the “Average inhibition %, biofilms viability” value (S. aureus ATCC 25923 [2]; 25 µM) was 15.4 ± 3.3%. The “Average inhibition %, planktonic cells viability” value (S. aureus ATCC 25923 [2]; 25 µM) was 0.3 ± 0.6%, the “Average inhibition %, biofilms viability” value (S. aureus ATCC 25923 [2]; 50 µM) was 23.3 ± 4.3% and the “Average inhibition %, planktonic cells viability” value (S. aureus ATCC 25923 [2]; 50 µM) was 0 ± 0%. The “Average inhibition %, biofilms viability” value (S. aureus ATCC 25923 [2]; 100 µM) was 28.7 ± 6.3%, the “Average inhibition %, planktonic cells viability” value (S. aureus ATCC 25923 [2]; 100 µM) was 23.6 ± 15.5% and the “Average inhibition %, biofilms viability” value (S. aureus ATCC 25923 [2]; 200 µM) was 28.8 ± 6.5%. The “Average inhibition %, planktonic cells viability” value (S. aureus ATCC 25923 [2]; 200 µM) was 57 ± 23.8%, the inhibition at 25 µM (S. aureus ATCC 25923 [2]; [11]) was 21.5 ± 4.7% and the inhibition at 25 µM (S. aureus ATCC 25923 [2]; [12]) was 16.1 ± 25.9%. The inhibition at 50 µM (S. aureus ATCC 25923 [2]; [11]) was 29.7 ± 10.3%, the inhibition at 50 µM (S. aureus ATCC 25923 [2]; [12]) was 12.4 ± 8.3% and the inhibition at 100 µM (S. aureus ATCC 25923 [2]; [11]) was 36.6 ± 6.4%. For the same molecule, the inhibition at 100 µM (S. aureus ATCC 25923 [2]; [12]) was 25.7 ± 16.3%, the inhibition at 200 µM (S. aureus ATCC 25923 [2]; [11]) was 43.1 ± 20.9% and the inhibition at 200 µM (S. aureus ATCC 25923 [2]; [12]) was 31.5 ± 11.1%. For the same molecule, the “Average inhibition %, biofilms viability” value (A. baumannii NCTC 13423; 10 µM) was 0.3 ± 0.6%, the “Average inhibition %, planktonic cells viability” value (A. baumannii NCTC 13423; 10 µM) was 4.7 ± 4.7% and the “Average inhibition %, biofilms viability” value (A. baumannii NCTC 13423; 15 µM) was 0.7 ± 0.6%. The “Average inhibition %, planktonic cells viability” value (A. baumannii NCTC 13423; 15 µM) was 4.2 ± 4.8%, the “Average inhibition %, biofilms viability” value (A. baumannii NCTC 13423; 25 µM) was 1.2 ± 1.5% and the “Average inhibition %, planktonic cells viability” value (A. baumannii NCTC 13423; 25 µM) was 0 ± 0%. The “Average inhibition %, biofilms viability” value (A. baumannii NCTC 13423; 50 µM) was 6.5 ± 6.4%, the “Average inhibition %, planktonic cells viability” value (A. baumannii NCTC 13423; 50 µM) was 0 ± 0% and the inhibition at 10 µM (A. baumannii NCTC 13423; [3]) was 1.7 ± 3%. It also gave an inhibition at 10 µM (A. baumannii NCTC 13423; [4]) of 0%, an inhibition at 15 µM (A. baumannii NCTC 13423; [5]) of 3.3 ± 5.7% and an inhibition at 15 µM (A. baumannii NCTC 13423; [6]) of 0%. For the same molecule, the inhibition at 25 µM (A. baumannii NCTC 13423; [7]) was 0.2 ± 0.4%, the inhibition at 25 µM (A. baumannii NCTC 13423; [8]) was 0% and the inhibition at 50 µM (A. baumannii NCTC 13423; [9]) was 3.3 ± 5.1%. For the same molecule, the inhibition at 50 µM (A. baumannii NCTC 13423; [10]) was 0.3 ± 0.6% and the “MIC A. baumannii NCTC 13423” value (A. baumannii NCTC 13423; pre-exposure, Inactive = no activity up to 50 μM, > = some inhibition but no MIC reached) was “Inactive”.
